From ChEMBL document CHEMBL4507319 (2021)

Key:
[1] = molecular target: T1, Discoidin domain-containing receptor 2 (Homo sapiens) (UniProt Q16832); conditions: Compound concentration 1000.0 nM
T1 sequence (whole entry): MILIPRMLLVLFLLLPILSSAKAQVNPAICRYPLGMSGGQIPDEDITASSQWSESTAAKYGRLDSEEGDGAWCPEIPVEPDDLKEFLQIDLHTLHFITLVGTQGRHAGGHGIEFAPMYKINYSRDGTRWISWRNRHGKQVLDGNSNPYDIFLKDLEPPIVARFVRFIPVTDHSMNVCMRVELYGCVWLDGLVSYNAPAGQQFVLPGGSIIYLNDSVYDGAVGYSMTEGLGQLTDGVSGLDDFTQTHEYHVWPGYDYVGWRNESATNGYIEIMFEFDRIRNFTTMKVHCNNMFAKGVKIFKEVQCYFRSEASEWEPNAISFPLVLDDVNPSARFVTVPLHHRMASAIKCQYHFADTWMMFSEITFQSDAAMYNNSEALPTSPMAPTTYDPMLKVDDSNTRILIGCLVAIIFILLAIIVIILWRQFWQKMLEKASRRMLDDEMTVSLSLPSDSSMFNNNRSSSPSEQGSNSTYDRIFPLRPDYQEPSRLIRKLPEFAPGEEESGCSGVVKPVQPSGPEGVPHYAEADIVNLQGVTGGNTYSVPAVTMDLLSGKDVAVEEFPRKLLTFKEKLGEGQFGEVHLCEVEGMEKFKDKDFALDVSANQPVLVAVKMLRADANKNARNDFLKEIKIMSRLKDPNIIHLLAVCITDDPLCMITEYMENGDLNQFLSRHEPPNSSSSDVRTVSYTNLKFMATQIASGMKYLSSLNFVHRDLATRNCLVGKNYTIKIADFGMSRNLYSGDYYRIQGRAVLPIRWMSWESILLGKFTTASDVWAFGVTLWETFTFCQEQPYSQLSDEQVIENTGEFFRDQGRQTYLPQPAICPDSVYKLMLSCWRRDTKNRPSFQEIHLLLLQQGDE

[2] = system: Epidermal growth factor receptor (Homo sapiens), P00533 [UNDEFINED MUTATION]; conditions: Compound concentration 1000.0 nM
[3] = molecular target: T2, Ephrin type-A receptor 1 (Homo sapiens) (UniProt P21709); conditions: Compound concentration 1000.0 nM
T2 sequence (whole entry): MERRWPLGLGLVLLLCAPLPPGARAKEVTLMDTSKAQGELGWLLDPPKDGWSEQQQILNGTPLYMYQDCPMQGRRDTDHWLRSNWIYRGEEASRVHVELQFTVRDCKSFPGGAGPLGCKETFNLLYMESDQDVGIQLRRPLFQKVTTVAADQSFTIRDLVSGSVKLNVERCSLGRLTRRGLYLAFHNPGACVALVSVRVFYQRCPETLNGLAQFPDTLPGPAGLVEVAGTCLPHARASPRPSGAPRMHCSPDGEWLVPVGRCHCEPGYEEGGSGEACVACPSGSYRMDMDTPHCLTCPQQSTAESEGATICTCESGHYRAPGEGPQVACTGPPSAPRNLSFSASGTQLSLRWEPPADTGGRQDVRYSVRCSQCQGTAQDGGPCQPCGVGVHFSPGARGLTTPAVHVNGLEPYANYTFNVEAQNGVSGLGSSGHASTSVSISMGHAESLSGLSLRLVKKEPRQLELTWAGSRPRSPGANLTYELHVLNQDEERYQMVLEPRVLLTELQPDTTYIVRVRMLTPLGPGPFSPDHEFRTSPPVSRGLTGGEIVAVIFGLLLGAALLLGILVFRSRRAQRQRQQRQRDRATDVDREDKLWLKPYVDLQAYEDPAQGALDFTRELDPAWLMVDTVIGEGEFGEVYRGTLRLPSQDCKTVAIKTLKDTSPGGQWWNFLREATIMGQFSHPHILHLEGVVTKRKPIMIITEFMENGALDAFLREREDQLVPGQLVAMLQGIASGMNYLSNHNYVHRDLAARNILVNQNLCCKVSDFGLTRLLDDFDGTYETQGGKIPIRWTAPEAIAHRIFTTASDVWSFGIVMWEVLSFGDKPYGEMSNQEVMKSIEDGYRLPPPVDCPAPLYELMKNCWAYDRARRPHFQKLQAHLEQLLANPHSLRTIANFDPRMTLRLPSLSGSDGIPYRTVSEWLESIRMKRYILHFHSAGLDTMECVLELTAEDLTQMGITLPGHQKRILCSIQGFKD

[4] = molecular target: Receptor tyrosine-protein kinase erbB-3 (Homo sapiens) (UniProt P21860); conditions: Compound concentration 1000.0 nM
[5] = molecular target: T3, Interleukin-1 receptor-associated kinase 4 (Homo sapiens) (UniProt Q9NWZ3); conditions: Compound concentration 1000.0 nM
T3 sequence (whole entry): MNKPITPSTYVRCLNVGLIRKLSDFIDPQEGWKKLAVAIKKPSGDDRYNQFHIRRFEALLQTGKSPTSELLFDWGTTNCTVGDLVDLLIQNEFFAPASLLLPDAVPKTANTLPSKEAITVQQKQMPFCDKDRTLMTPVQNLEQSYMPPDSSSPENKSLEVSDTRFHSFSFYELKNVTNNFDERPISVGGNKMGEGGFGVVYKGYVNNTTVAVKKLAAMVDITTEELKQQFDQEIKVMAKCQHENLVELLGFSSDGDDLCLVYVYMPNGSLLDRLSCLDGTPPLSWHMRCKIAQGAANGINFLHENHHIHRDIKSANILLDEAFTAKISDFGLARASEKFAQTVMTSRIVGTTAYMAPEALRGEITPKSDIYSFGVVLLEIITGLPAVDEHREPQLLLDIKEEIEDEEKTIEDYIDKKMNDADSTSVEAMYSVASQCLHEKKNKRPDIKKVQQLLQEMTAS

[6] = molecular target: Maternal embryonic leucine zipper kinase (Homo sapiens) (UniProt Q14680); conditions: Compound concentration 1000.0 nM
[7] = molecular target: Myosin light chain kinase family member 4 (Homo sapiens) (UniProt Q86YV6); conditions: Compound concentration 1000.0 nM
[8] = molecular target: D(4) dopamine receptor (Homo sapiens) (UniProt P21917); conditions: Compound concentration 10.0 uM
[9] = molecular target: GABA-A receptor; anion channel (Rattus norvegicus) (UniProt O09028+P15431+P18506+P18508+P19969+P20236+P23574+P23576+P28471+P28473+P30191+P62813+P63079+P63138+Q91ZM7+Q9ES14); conditions: Compound concentration 10.0 uM

Receptor tyrosine-protein kinase erbB-3 (Homo sapiens), sequence (P21860 whole entry): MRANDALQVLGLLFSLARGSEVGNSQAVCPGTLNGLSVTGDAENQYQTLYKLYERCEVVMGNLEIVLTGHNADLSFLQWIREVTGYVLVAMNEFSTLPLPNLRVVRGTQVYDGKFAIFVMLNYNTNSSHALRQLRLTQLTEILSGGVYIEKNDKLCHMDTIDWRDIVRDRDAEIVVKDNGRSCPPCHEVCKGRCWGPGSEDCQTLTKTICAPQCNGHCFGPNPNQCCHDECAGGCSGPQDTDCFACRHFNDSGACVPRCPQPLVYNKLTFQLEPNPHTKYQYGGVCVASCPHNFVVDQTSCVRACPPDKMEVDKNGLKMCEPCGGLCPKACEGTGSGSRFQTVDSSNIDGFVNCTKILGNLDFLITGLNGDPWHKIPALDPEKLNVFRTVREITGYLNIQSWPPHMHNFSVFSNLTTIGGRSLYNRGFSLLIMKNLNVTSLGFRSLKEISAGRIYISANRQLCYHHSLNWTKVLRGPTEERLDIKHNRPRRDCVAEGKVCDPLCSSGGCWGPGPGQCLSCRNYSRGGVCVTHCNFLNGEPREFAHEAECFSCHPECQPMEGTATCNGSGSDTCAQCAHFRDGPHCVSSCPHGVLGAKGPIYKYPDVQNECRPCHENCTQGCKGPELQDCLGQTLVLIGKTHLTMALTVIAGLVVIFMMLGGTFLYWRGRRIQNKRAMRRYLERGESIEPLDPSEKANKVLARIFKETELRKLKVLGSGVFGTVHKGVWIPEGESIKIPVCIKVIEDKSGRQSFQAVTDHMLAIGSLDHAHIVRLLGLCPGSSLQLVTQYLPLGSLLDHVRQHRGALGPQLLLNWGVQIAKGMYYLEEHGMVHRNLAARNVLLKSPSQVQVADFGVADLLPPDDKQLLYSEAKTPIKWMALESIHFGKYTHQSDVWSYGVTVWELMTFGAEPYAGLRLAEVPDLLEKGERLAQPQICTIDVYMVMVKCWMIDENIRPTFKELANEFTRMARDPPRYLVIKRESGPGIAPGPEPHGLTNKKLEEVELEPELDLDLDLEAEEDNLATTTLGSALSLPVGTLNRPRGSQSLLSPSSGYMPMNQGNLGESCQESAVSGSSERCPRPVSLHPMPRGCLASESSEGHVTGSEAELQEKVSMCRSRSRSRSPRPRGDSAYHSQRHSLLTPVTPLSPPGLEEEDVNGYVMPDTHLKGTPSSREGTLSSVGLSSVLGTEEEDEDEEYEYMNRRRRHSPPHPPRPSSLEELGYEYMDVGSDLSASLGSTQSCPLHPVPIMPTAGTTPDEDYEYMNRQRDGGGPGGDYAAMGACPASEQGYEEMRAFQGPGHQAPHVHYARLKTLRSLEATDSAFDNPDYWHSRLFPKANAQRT
Maternal embryonic leucine zipper kinase (Homo sapiens), sequence (Q14680 whole entry, looked up): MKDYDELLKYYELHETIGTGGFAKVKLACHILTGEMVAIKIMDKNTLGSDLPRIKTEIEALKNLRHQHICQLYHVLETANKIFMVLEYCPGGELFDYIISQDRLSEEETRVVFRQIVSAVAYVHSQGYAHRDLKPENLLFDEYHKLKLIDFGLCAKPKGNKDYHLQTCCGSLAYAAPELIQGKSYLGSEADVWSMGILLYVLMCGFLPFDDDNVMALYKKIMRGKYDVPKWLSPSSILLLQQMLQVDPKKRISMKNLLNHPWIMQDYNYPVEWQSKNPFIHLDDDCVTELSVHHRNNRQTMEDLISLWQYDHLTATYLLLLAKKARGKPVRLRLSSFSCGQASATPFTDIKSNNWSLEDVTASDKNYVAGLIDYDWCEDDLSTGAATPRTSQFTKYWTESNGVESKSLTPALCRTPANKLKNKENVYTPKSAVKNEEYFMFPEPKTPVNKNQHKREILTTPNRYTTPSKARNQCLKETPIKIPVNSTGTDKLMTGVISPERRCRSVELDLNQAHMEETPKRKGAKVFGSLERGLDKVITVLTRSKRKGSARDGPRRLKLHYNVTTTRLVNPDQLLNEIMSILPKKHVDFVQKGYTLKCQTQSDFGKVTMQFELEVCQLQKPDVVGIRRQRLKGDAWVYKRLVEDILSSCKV
Myosin light chain kinase family member 4 (Homo sapiens), sequence (Q86YV6 whole entry): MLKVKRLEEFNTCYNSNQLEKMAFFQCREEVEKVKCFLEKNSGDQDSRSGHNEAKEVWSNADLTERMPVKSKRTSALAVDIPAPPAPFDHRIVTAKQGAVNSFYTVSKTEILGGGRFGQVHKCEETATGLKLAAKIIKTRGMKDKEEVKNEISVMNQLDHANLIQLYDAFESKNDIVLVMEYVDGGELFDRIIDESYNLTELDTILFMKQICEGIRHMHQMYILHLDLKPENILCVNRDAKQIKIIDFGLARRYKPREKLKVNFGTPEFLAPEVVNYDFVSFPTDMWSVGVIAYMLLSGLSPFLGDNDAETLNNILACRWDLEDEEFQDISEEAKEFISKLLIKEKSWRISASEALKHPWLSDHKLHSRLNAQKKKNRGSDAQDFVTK
D(4) dopamine receptor (Homo sapiens), sequence (P21917 whole entry): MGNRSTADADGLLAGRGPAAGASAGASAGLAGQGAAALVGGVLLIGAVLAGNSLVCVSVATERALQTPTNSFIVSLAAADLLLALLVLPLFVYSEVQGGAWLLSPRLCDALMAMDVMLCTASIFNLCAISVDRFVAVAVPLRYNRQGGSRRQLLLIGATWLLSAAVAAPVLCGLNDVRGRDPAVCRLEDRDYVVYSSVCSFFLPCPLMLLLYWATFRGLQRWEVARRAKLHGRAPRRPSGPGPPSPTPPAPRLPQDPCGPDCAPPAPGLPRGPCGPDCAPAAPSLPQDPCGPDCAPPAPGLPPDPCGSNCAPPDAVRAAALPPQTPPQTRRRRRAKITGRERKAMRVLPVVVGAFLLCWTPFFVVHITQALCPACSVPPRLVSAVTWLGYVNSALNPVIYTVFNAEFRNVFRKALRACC
Epidermal growth factor receptor (Homo sapiens), P00533 [UNDEFINED MUTATION], sequence (P00533 whole entry, looked up, change not shown): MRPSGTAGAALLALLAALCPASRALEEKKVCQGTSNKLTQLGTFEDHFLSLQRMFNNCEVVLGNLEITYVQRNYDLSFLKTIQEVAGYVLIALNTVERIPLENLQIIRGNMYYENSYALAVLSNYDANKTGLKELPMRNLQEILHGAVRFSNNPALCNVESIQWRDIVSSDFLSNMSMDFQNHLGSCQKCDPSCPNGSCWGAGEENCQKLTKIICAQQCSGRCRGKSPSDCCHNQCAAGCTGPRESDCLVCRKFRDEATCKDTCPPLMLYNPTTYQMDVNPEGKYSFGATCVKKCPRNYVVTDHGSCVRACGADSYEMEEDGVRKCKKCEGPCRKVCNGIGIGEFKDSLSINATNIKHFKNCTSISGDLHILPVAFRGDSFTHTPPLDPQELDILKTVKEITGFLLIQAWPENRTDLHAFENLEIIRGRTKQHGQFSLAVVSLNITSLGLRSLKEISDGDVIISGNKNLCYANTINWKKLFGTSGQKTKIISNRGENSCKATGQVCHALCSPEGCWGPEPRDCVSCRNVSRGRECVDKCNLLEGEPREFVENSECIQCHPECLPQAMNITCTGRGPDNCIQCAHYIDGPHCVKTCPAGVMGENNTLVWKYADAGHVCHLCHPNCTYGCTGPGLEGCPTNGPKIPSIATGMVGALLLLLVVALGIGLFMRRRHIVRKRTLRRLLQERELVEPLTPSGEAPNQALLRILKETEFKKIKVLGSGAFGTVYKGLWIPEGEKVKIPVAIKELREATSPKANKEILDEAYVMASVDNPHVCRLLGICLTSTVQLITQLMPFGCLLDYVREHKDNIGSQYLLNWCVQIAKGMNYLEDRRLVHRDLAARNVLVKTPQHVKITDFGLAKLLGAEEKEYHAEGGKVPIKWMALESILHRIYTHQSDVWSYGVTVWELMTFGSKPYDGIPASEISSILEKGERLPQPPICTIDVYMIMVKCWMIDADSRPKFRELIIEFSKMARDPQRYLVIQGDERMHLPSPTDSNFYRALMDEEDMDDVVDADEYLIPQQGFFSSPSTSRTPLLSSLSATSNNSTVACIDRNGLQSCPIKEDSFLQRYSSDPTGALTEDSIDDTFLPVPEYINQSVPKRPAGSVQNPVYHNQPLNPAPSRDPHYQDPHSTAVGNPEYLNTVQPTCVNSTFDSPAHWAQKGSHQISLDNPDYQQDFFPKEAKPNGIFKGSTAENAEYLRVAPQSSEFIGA

Compound	residual activity [1]	residual activity [2]	residual activity [3]	residual activity [4]	residual activity [5]	residual activity [6]	residual activity [7]	inhibition [8]	inhibition [9]
CCc1ccccc1C(=O)Nc1n[nH]c2c(C)c(F)c(C3C(C#N)=C(C)N(C)C(C)=C3C#N)cc12 [BAY-3827]	100%	79%	60%	91%	100%	43%	100%	-0.18%	-7.98%
CC1=C(C#N)C(c2ccc3c(c2)c(NC(=O)c2ccccc2C)nn3C)C(C#N)=C(C)N1 [BAY-974]	86%	73%	88%	100%	7.5%	81%	100%	0.21%	-0.8%
